Consider 24 compounds from PubChem BioAssay AID256 (DTP/NCI, 2004).

For this assay, the system named is CD2F1 mice, L1210 leukemia ip, survival T/C. The experiment in a line: NCI In Vivo Anticancer Drug Screen. Data for tumor model L1210 Leukemia (intraperitoneal) in CD2F1 (CDF1) mice. The following applies: higher = longer survival. A digest of the protocol: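 Implant tumor; dose compound or vehicle; measure endpoint in both groups; report treated divided by control.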

[1] abbreviates: endpoint: mean survival time, dose: 100.0 mg/kg/injection, schedule: Q01DX009 (ip), vehicle: saline with Tween-80.
Setting [2] is: endpoint: mean survival time, dose: 100.0 mg/kg/injection, schedule: Q04DX003 (ip), vehicle: saline with Tween-80.
Where [3] appears, read: endpoint: mean survival time, dose: 200.0 mg/kg/injection, schedule: Q04DX003 (ip), vehicle: saline with Tween-80.
Setting [4] is: endpoint: mean survival time, dose: 400.0 mg/kg/injection, schedule: Q04DX003 (ip), vehicle: saline with Tween-80.
Where [5] appears, read: endpoint: mean survival time, dose: 25.0 mg/kg/injection, schedule: Q01DX001 (ip), vehicle: saline with Tween-80.
The mark [6] stands for this setting: endpoint: mean survival time, dose: 50.0 mg/kg/injection, schedule: Q01DX001 (ip), vehicle: saline with Tween-80.
Where [7] appears, read: endpoint: mean survival time, dose: 100.0 mg/kg/injection, schedule: Q01DX001 (ip), vehicle: saline with Tween-80.
Where [8] appears, read: endpoint: mean survival time, dose: 200.0 mg/kg/injection, schedule: Q01DX001 (ip), vehicle: saline with Tween-80.
Setting [9] is: endpoint: mean survival time, dose: 12.5 mg/kg/injection, schedule: Q01DX005 (ip), vehicle: water.
Where [10] appears, read: endpoint: mean survival time, dose: 25.0 mg/kg/injection, schedule: Q01DX005 (ip), vehicle: water.
The mark [11] stands for this setting: endpoint: mean survival time, dose: 50.0 mg/kg/injection, schedule: Q01DX005 (ip), vehicle: water.
The mark [12] stands for this setting: endpoint: mean survival time, dose: 100.0 mg/kg/injection, schedule: Q01DX005 (ip), vehicle: water.
Setting [13] is: endpoint: mean survival time, dose: 200.0 mg/kg/injection, schedule: Q01DX005 (ip), vehicle: water.

“And” between values parts separate entries of the source, which are not always exact repeats. Identical values can stand only once. Inconclusive results and toxic doses are left out.

Consider `Nc1ncnc2c1ncn2C1C=C(CO)C(O)C1O` (stereo not drawn), for which the T/C by setting is: (endpoint: mean survival time, dose: 0.25 mg/kg/injection, schedule: Q01DX009 (ip), vehicle: Klucel (hydroxypropylcellulose) (HPC)) 122 % of control; (endpoint: mean survival time, dose: 0.5 mg/kg/injection, schedule: Q01DX009 (ip), vehicle: Klucel (hydroxypropylcellulose) (HPC)) 113 % of control and 123 % of control; (endpoint: mean survival time, dose: 1.0 mg/kg/injection, schedule: Q01DX009 (ip), vehicle: Klucel (hydroxypropylcellulose) (HPC)) 124 % of control; (endpoint: mean survival time, dose: 4.0 mg/kg/injection, schedule: Q01DX009 (ip), vehicle: Klucel (hydroxypropylcellulose) (HPC)) 122 % of control.
Take `CC12C=C(C(=O)c3ccccc3)C(CC1)C2(C)C` (stereo not drawn): the T/C under setting [1] is 95 % of control; the T/C under setting [2] is 96 % of control; the T/C (endpoint: mean survival time, dose: 200.0 mg/kg/injection, schedule: Q01DX009 (ip), vehicle: saline with Tween-80) was 97 % of control; the T/C under setting [3] was 93 % of control; the T/C (endpoint: mean survival time, dose: 400.0 mg/kg/injection, schedule: Q01DX009 (ip), vehicle: saline with Tween-80) is 97 % of control; the T/C under setting [4] was 91 % of control.
Turning to `CCOc1cc(N)nc2c1nnn2C1OC(CO)C(O)C1O` (stereo not drawn), the T/C was 107 % of control (endpoint: mean survival time, dose: 6.25 mg/kg/injection, schedule: Q01DX005 (ip), vehicle: other); 98 % of control (endpoint: mean survival time, dose: 12.5 mg/kg/injection, schedule: Q01DX005 (ip), vehicle: other); 101 % of control (endpoint: mean survival time, dose: 25.0 mg/kg/injection, schedule: Q01DX005 (ip), vehicle: other); 98 % of control (endpoint: mean survival time, dose: 50.0 mg/kg/injection, schedule: Q01DX005 (ip), vehicle: other); 101 % of control (endpoint: mean survival time, dose: 100.0 mg/kg/injection, schedule: Q01DX005 (ip), vehicle: other); 98 % of control (endpoint: mean survival time, dose: 200.0 mg/kg/injection, schedule: Q01DX005 (ip), vehicle: other).
Regarding `O=S(=O)(Nc1c(Cl)c(Cl)c(NS(=O)(=O)c2ccccc2)c(Cl)c1Cl)c1ccccc1`, the T/C is, setting by setting: (endpoint: mean survival time, dose: 100.0 mg/kg/injection, schedule: Q04DX003 (ip), vehicle: Klucel (hydroxypropylcellulose) (HPC)) 98 % of control; (endpoint: mean survival time, dose: 200.0 mg/kg/injection, schedule: Q04DX003 (ip), vehicle: Klucel (hydroxypropylcellulose) (HPC)) 91 % of control; (endpoint: mean survival time, dose: 400.0 mg/kg/injection, schedule: Q04DX003 (ip), vehicle: Klucel (hydroxypropylcellulose) (HPC)) 103 % of control.
As to `NC1CCCCC1N.O=S(=O)([O-])CCCNC1CCCCC1.O=S(=O)([O-])CCCNC1CCCCC1.[Pt+4]`, the T/C is 168 % of control (endpoint: median survival time, dose: 0.78 mg/kg/injection, schedule: Q04DX003 (ip), vehicle: saline); 256 % of control (endpoint: median survival time, dose: 1.56 mg/kg/injection, schedule: Q04DX003 (ip), vehicle: saline); 361 % of control and 365 % of control (endpoint: median survival time, dose: 3.12 mg/kg/injection, schedule: Q04DX003 (ip), vehicle: saline); 169 % of control and 240 % of control (endpoint: median survival time, dose: 6.25 mg/kg/injection, schedule: Q04DX003 (ip), vehicle: saline).
As for `CC(=O)Nc1sc2c(c1C#N)CCCC2`, the T/C runs as follows: under setting [2], 93 % of control; under setting [3], 93 % of control; under setting [4], 101 % of control.
Take `OC1CCc2c(Cl)sc(Cl)c21` (stereo not drawn): the T/C is, setting by setting: under setting [5], 92 % of control; under setting [6], 98 % of control; under setting [7], 98 % of control.
For the compound `Cn1nc(NC(=O)C(F)(F)F)c2ncc(-c3ccccc3)nc21`, the T/C reads like this: under setting [2], 91 % of control; under setting [3], 87 % of control; under setting [4], 91 % of control.
`Nc1ccc(Nc2ccccc2C(=O)O)cc1`: the T/C is 95 % of control (endpoint: mean survival time, dose: 50.0 mg/kg/injection, schedule: Q01DX009 (ip), vehicle: saline with Tween-80); 103 % of control under setting [1]; 105 % of control under setting [2]; 97 % of control under setting [3].
`N#CCCP(CCC#N)CCCCP(CCC#N)CCC#N`: the T/C is, setting by setting: (endpoint: mean survival time, dose: 6.25 mg/kg/injection, schedule: Q01DX001 (ip), vehicle: saline with Tween-80) 100 % of control; (endpoint: mean survival time, dose: 12.5 mg/kg/injection, schedule: Q01DX001 (ip), vehicle: saline with Tween-80) 96 % of control; under setting [5], 98 % of control and 102 % of control.
Regarding `CC(C)OC(=O)CCl`, the T/C is 100 % of control under setting [7] and 100 % of control under setting [8].
As to `CC(C)c1cc(C(C)C)nc(NNc2nc(C(C)C)cc(C(C)C)n2)n1`, the T/C under setting [2] is 102 % of control, the T/C under setting [3] was 100 % of control and the T/C under setting [4] was 100 % of control.
As to `CCOC(=O)N1CC2CCC(C1)N2C`, the T/C (endpoint: mean survival time, dose: 100.0 mg/kg/injection, schedule: Q04DX003 (ip), vehicle: saline) is 93 % of control.
Regarding `O=C(Sc1cn(C2CC(O)C(CO)O2)c(=O)[nH]c1=O)c1ccc(N(CCCl)CCCl)cc1` (stereo not drawn), the T/C under setting [9] is 117 % of control; the T/C under setting [10] is 115 % of control; the T/C under setting [11] was 124 % of control; the T/C (endpoint: mean survival time, dose: 66.0 mg/kg/injection, schedule: Q01DX005 (ip), vehicle: water) was 119 % of control; the T/C under setting [12] is 119 % of control; the T/C under setting [13] is 120 % of control.
As to `O=C1c2ccccc2C(=O)c2c1cccc2N1CCOCC1`, the T/C (endpoint: mean survival time, dose: 25.0 mg/kg/injection, schedule: Q04DX002 (ip), vehicle: Klucel (hydroxypropylcellulose) (HPC)) is 96 % of control; the T/C (endpoint: mean survival time, dose: 50.0 mg/kg/injection, schedule: Q04DX002 (ip), vehicle: Klucel (hydroxypropylcellulose) (HPC)) was 102 % of control; the T/C (endpoint: mean survival time, dose: 100.0 mg/kg/injection, schedule: Q04DX002 (ip), vehicle: Klucel (hydroxypropylcellulose) (HPC)) is 102 % of control; the T/C (endpoint: mean survival time, dose: 200.0 mg/kg/injection, schedule: Q04DX002 (ip), vehicle: Klucel (hydroxypropylcellulose) (HPC)) is 96 % of control.
In the case of `O=C(/C=C(\Br)c1ccccc1)c1ccccc1`, under “endpoint: mean survival time, dose: 100.0 mg/kg/injection, schedule: Q04DX002 (ip), vehicle: saline with Tween-80”, the T/C was 91 % of control.
As for `CC[As](=O)(O)c1ccc([N+](=O)[O-])cc1`, the T/C is, setting by setting: under setting [5], 98 % of control; under setting [6], 96 % of control.
Turning to `O=C(O)c1ccccc1.[Cu+2]`, the T/C is 96 % of control (endpoint: mean survival time, dose: 5.0 mg/kg/injection, schedule: Q01DX001 (ip), vehicle: saline); 91 % of control (endpoint: mean survival time, dose: 10.0 mg/kg/injection, schedule: Q01DX001 (ip), vehicle: saline); 107 % of control (endpoint: mean survival time, dose: 20.0 mg/kg/injection, schedule: Q01DX001 (ip), vehicle: saline); 102 % of control (endpoint: mean survival time, dose: 40.0 mg/kg/injection, schedule: Q01DX001 (ip), vehicle: saline); 107 % of control (endpoint: mean survival time, dose: 80.0 mg/kg/injection, schedule: Q01DX001 (ip), vehicle: saline).
In the case of `BrC[P+](CBr)(CBr)CBr`, the T/C is 98 % of control (endpoint: median survival time, dose: 25.0 mg/kg/injection, schedule: Q01DX009 (ip), vehicle: saline with Tween-80); 102 % of control (endpoint: median survival time, dose: 50.0 mg/kg/injection, schedule: Q01DX009 (ip), vehicle: saline with Tween-80); 102 % of control (endpoint: median survival time, dose: 100.0 mg/kg/injection, schedule: Q01DX009 (ip), vehicle: saline with Tween-80); 109 % of control (endpoint: median survival time, dose: 200.0 mg/kg/injection, schedule: Q01DX009 (ip), vehicle: saline with Tween-80); 96 % of control (endpoint: median survival time, dose: 400.0 mg/kg/injection, schedule: Q01DX009 (ip), vehicle: saline with Tween-80).
In the case of `O=C1C(n2ccc(=O)[nH]c2=O)CCN1CCO` (stereo not drawn), the T/C runs as follows: (endpoint: mean survival time, dose: 100.0 mg/kg/injection, schedule: Q04DX003 (ip), vehicle: other) 102 % of control; (endpoint: mean survival time, dose: 200.0 mg/kg/injection, schedule: Q04DX003 (ip), vehicle: other) 102 % of control; (endpoint: mean survival time, dose: 400.0 mg/kg/injection, schedule: Q04DX003 (ip), vehicle: other) 96 % of control.
With `CSc1nc(N)c2c(C(N)=O)cc(=O)n(C3OC(CO)C(O)C3O)c2n1` (stereo not drawn), the T/C was 96 % of control under setting [9]; 96 % of control under setting [10]; 96 % of control under setting [11]; 93 % of control under setting [12]; 101 % of control under setting [13].
For `C[N+]1(C)CCC(c2ccccc2)(c2ccccc2)C(=O)C1`, the T/C (endpoint: mean survival time, dose: 75.0 mg/kg/injection, schedule: Q01DX001 (ip), vehicle: saline) is 101 % of control and the T/C (endpoint: mean survival time, dose: 150.0 mg/kg/injection, schedule: Q01DX001 (ip), vehicle: saline) was 101 % of control.
`C/C=C(/Cl)C(=O)O`: the T/C by setting is: under setting [7], 100 % of control; under setting [8], 101 % of control.
As for `N#Cc1ccc(C(=O)CC(O)(C(F)(F)F)C(F)(F)F)cc1`, the T/C by setting is: under setting [2], 101 % of control; under setting [3], 101 % of control; under setting [4], 98 % of control.
